Reference: patent US20160030407A1, “Method of Treating Inflammatory Lung Disease” (priority 2010, published 2016)
Where “and” joins values, the source holds several entries; their conditions need not be identical. Equal entries are not always repeated.

Key:
[1] = Single i.v. dose toxicity: clinical chemistry; type: in vivo, Sprague-Dawley rats
From the text: On day 15, urine was collected on all surviving animals for urinalysis. The animals were euthanized and bled via cardiac puncture. Blood was collected for hematology, clinical chemistry, and coagulation analysis. Tissues were collected, weighed, and stored in 10% neutral-buffered formalin for possible future analysis.

[2] = system: BACE-1 mRNA; experiment: BACE-1 mRNA levels in SHSY cells (RTPCR); type: cell-based, human; conditions: 30 minutes, TNF-α used to increase BACE expression
From the text: TNF-α was used to increase BACE expression.

[3] = system: autoimmune thyroiditis; experiment: Experimental Autoimmune Thyroiditis (Example 16A): thyroid histopathology; type: in vivo, mice; conditions: 0.05 mg/ml in drinking water (approx. 12.5 mg/kg/day); day 21; p=0.05
Protocol: Thyroiditis was induced by injection of thyroglobulin emulsified in complete Freund's adjuvant […]. On days 0 and 7, female mice received subcutaneous injection of 100 μg thyroglobulin (2 injections of 50 μg each). Control mice drank water. […] Mice were sacrificed on day 21.
Thyroid glands were removed. One lobe was fixed in formalin for histopathology. One lobe was frozen for immunohistochemistry. The extent of lymphocytic infiltration and destruction of the thyroid gland was assessed digitally. Initially, the entire thyroid lobe was examined. […] The final score was expressed as the percent of the thyroid area infiltrated by lymphocytes and damaged. The results are shown graphically in FIG. 42. […] Photomicrographs of hematoxylin- and eosin-stained thyroids from control and anatabine-treated mice are shown in FIG. 43A (control) and FIG. 43B (anatabine-treated).

[4] = Anatabine 0.1 mg/kg single i.v. dose, male rats, individual animals B1-B5
[5] = Anatabine 0.1 mg/kg, M, Mean, n 5
[6] = Anatabine 0.75 mg/kg single i.v. dose, female rats, individual animals C6-C10
[7] = Anatabine 0.75 mg/kg single i.v. dose, male rats, individual animals C1-C5
[8] = Anatabine 0.75 mg/kg, F, Mean, n 5

C1=CCC(c2cccnc2)NC1 (racemic) [Anatabine, 1,2,3,6-tetrahydro-[2,3′]bipyridinyl]
DIR BILIRUBIN [1, 4]: 0 mg/dL | GLOBULIN [1, 4]: 2.9 g/dL (2×) and 2.6 g/dL and 3.1 g/dL | GLUCOSE [1, 4]: 210 mg/dL | POTASSIUM [1, 4]: 5.9 mEq/L and 6.5 mEq/L and 6.6 mEq/L and 6.9 mEq/L and 6.1 mEq/L | TOT BILIRUBIN [1, 4]: 0 mg/dL | TOT PROTEIN [1, 4]: 6.3 g/dL (2×) and 5.8 g/dL and 5.9 g/dL and 6.2 g/dL | CREATININE ([1]; Anatabine 0.1 mg/kg, F, Mean, n 5): 0.44 mg/dL | CHLORIDE [1, 5]: 98.00 mEq/L | CREATININE [1, 5]: 0.36 mg/dL | POTASSIUM [1, 5]: 6.40 mEq/L | ALBUMIN [1, 6]: 3.5 g/dL (2×) and 3.6 g/dL (2×) and 3.4 g/dL | ALK PHOSPHATASE [1, 6]: 130 IU/L and 160 IU/L | ALT [1, 6]: 63 IU/L and 49 IU/L (2×) and 55 IU/L and 57 IU/L | AST [1, 6]: 95 IU/L and 69 IU/L and 76 IU/L and 54 IU/L and 72 IU/L | BUN [1, 6]: 15 mg/dL (3×) and 16 mg/dL (2×) | CHLORIDE [1, 6]: 97 mEq/L (2×) and 96 mEq/L and 99 mEq/L | CHOLESTEROL [1, 6]: 66 mg/dL and 64 mg/dL and 63 mg/dL and 69 mg/dL and 87 mg/dL | CREATININE [1, 6]: 0.5 mg/dL (2×) and 0.4 mg/dL (3×) | DIR BILIRUBIN [1, 6]: 0 mg/dL | GLOBULIN [1, 6]: 2.7 g/dL and 3 g/dL (2×) | PHOSPHORUS [1, 6]: 9.7 mg/dL and 7.7 mg/dL and 9.6 mg/dL and 9.2 mg/dL and 7 mg/dL | POTASSIUM [1, 6]: 5.5 mEq/L and 5.9 mEq/L and 6 mEq/L and 5.7 mEq/L and 6.3 mEq/L | TOT BILIRUBIN [1, 6]: 0 mg/dL | TOT PROTEIN [1, 6]: 6.3 g/dL (2×) and 6.2 g/dL and 6.6 g/dL and 6.5 g/dL | ALBUMIN [1, 7]: 3.4 g/dL (2×) and 3.1 g/dL and 3.2 g/dL and 3.3 g/dL | ALT [1, 7]: 75 IU/L and 57 IU/L and 65 IU/L and 50 IU/L and 87 IU/L | AST [1, 7]: 66 IU/L and 97 IU/L and 90 IU/L and 92 IU/L | BUN [1, 7]: 15 mg/dL and 18 mg/dL and 12 mg/dL and 17 mg/dL and 21 mg/dL | CHLORIDE [1, 7]: 98 mEq/L and 99 mEq/L (2×) and 100 mEq/L and 97 mEq/L | CHOLESTEROL [1, 7]: 69 mg/dL (2×) and 60 mg/dL and 54 mg/dL and 62 mg/dL | CREATININE [1, 7]: 0.4 mg/dL (3×) and 0.3 mg/dL (2×) | DIR BILIRUBIN [1, 7]: 0 mg/dL (4×) and 0.1 mg/dL | GLOBULIN [1, 7]: 2.6 g/dL and 2.7 g/dL and 2.9 g/dL | GLUCOSE [1, 7]: 160 mg/dL | PHOSPHORUS [1, 7]: 11 mg/dL and 10 mg/dL | POTASSIUM [1, 7]: 6.3 mEq/L (2×) and 5.4 mEq/L and 6 mEq/L and 6.6 mEq/L | SODIUM [1, 7]: 150 mEq/L | TOT BILIRUBIN [1, 7]: 0 mg/dL (4×) and 0.1 mg/dL | TOT PROTEIN [1, 7]: 6.2 g/dL and 5.7 g/dL and 5.9 g/dL and 6.1 g/dL and 6.3 g/dL | CHLORIDE [1, 8]: 98.00 mEq/L | CREATININE [1, 8]: 0.44 mg/dL | CREATININE ([1]; Anatabine 0.75 mg/kg, M, Mean, n 5): 0.36 mg/dL | globulins vs vehicle controls, males ([1]; all anatabine dose levels, nicotine 0.75 mg/kg): marginally higher | total protein vs vehicle controls, males ([1]; all anatabine treatment groups, nicotine 0.75 mg/kg): slightly increased | albumin levels vs control ([1]; males 0.75 and […], females 0.1 and 0.75 mg/kg anatabine): slight increases in albumin levels | BACE-1 mRNA expression [2]: reduced this signal in a concentration-dependent manner | severity of thyroiditis (percent of thyroid area infiltrated and damaged) [3]: less severe thyroiditis than control mice
